Measured values reported in patent US6627732B1, “Glutathione derivatives and their dosage forms” (Teijin Limited, priority 1998, dated 2003).
Counter-ions that a name gives are not always drawn. Starred links: 1 amine or outer side, 2 acyl side, 3 side chain; linkers in the order of their positions; H or OH if unused. Non-standard residues stand in square brackets, D forms with d. Residues, ends and D or L forms follow the SMILES beside them. *: point of attachment. γGlu = O=C(O)[C@H](CCC(=O)[*:2])N[*:1]; dPhg = N[C@@H](C(=O)O)c1ccccc1; Bn = c1ccc(C*)cc1

Experiments:
rabbit liver esterase = experiment: Decomposition of glutathione derivatives by rabbit liver esterase (physiological stability); type: in vitro ADME; details: BSA/D-PBS pH 7.4, 196-244 μg/ml
Protocol: (§1) (1) Bovine serum albumin (hereinafter referred to as BSA), Dulbecco's phosphate buffered saline (hereinafter referred to as D-PBS), swine liver esterase, and rabbit liver esterase were purchased from Sigma, 6-week old male SD rats were purchased from Nippon SLC, and 12-week old or older male Japanese white rabbits were purchased from Ichikawaya. On the day of the incubation experiment described below, blood was drawn from the animals in the presence of heparin, and plasma was separated therefrom for use. Human plasma was obtained from normal healthy males after obtaining their consent.
(§2) (2) The glutathione derivatives described in the Examples and Comparative Examples of the present invention were incubated for a fixed time in an enzyme solution having the following composition. Acetonitrile was added to the reaction mixture to inactivate the enzyme thereby to stop the reaction. The concentration of the glutathione derivatives in the deproteinized supernatant was measured by HPLC. For each time point of the esterase enzyme experiment, the mean values from two measurement or more were determined, and for the rats and rabbits the mean values of plasma samples from three individuals were determined. For some of the experiment data, changes with time of percentages relative to initial concentration of the glutathione derivative are shown in FIGS. 2 to 4.
(§3) Swine liver esterase and rabbit liver esterase experiment
(§4) 30 mg-BSA/ml-D-PBS (pH 7.4): 36 to 45 parts
(§5) Swine or rabbit liver esterase/D-PBS: 4-5 parts
(§6) 10 mg-glutathione derivative/ml-ethanol: one part (the final concentration in the reaction mixture is 196-244 μg/ml)

[1] = Stability in rabbit plasma; details: rabbit, plasma
Protocol: as §1, §2
Rat, rabbit, and human plasma
Heparinized plasma: 30 to 40 parts
10 mg-glutathione derivative/ml-ethanol: one part (the final concentration in the reaction mixture is 250-323 μg/ml)

swine liver esterase = experiment: Decomposition of glutathione derivatives by swine liver esterase (physiological stability); type: in vitro ADME; details: BSA/D-PBS pH 7.4, 196-244 μg/ml
Protocol: as §1, §2, §3, §4, §5, §6

[2] = tested on: human leukemia cell HL-60; experiment: HL-60 cell differentiation induction, NBT reducing activity (Example 20); type: cell-based; details: 4 days
Protocol: Using the differentiation induction effect on the granulocytes or monocytes/macrophages obtained by culturing the human leukemia cell HL-60 in the presence of 9-cys-retinoic acid (9-cis-RA) or activated vitamin D3 (1α, 25(OH)2D3), and in the coexistence of the glutathione derivatives of Examples and the Comparative Examples of the present invention, the growth-promotion activity was tested.
(1) HL-60 cells used were purchased from the cell bank (Japanese Cancer Research Resource Bank, Cell No. JCRBOO85). In accordance with a standard method, the lyophilized cell stocks that were thawed before the start of the experiment and subcultured were used.
Subculturing was carried out by centrifuging (1500 rpm, 5 minutes) the cells in suspension culture and recovering and by diluting it in a fresh culture liquid at a concentration of about 1/100 (1 to 2×10^4 cells/ml). As the culture liquid, an RPMI 1640 medium containing 10% fetal bovine serum was used.
(2) The cells subcultured in (1) were recovered by centrifugation (1500 rpm, 5 minutes), and were dispersed in the culture liquid at 2×10^4 cells/ml, which were plated on a 24-well culture plate at 1 ml/well. To this system were added the glutathione derivatives of Example 4, Example 11, Comparative Example 1 and Comparative Example 2 and a differentiation induction substance (9-cis-RA or 1α, 25(OH)2D3). Thus, 1 μl per well each of an ethanol solution of the differentiation induction substances 9-cis-RA and 1α, 25(OH)2D3 were added at 5×10^−6 M and 2×10^−6 M, respectively. Then, 1 μl per well each of ethanol solutions of the glutathione derivatives at 1×10^−4 M to 1×10^−2 M was added. As the solvent treatment for the control, 1 μl of ethanol per well was added in stead of the glutathione derivative, and as the single treatment of glutathione derivatives, 1 μl of ethanol per well was added in stead of the differentiation induction substance. After culturing at 37° C. and 5% CO2 for 4 days, the cells were recovered by centrifugation (1500 rpm, 5 minutes).
(3) The measurement of a nitroblue tetrazolium (NBT) reducing activity which is often used for the evaluation of differentiation induction effects on monocytes/macrophages or granulocytic cells was carried out according to the following procedure. Thus, the cells recovered by centrifugation in (2) were suspended in a fresh culture medium, and then NBT was added thereto to […] and 12-O-tetradecanoyl phorbol-13-acetate to 100 nM. After incubating at 37° C. for 25 minutes, cytospin samples were prepared. After air drying, the cells were subjected to Kernechtrot stain, and 500 cells per sample were examined under alight microscope to determine the ratio of the NBT reduction activity-positive cells.
(4) The result of the experiment in which glutathione derivatives at 10^−7 to 10^−5 M were treated together with a differentiation induction substances is shown in Table 4. For a single treatment of each glutathione derivative up to 10^−5 M, no increases in the NBT reducing activity was observed. In a combined treatment of a glutathione derivative and a differentiation induction substance, an enhanced ratio of the NBT reduction activity-positive cells relative to the single treatment with a differentiation induction substance was observed depending on the concentration of the glutathione derivative. There were no major differences observed in the strength of effects between the glutathione derivatives of Examples 4 and 11 and Comparative Examples 1, and 2.

HL-60 cells = experiment: HL-60 cell differentiation induction, NBT reducing activity, DMSO as solvent (Example 21); type: cell-based, human
Text: In a manner similar to that in Example 20, the in vitro activity of the glutathione derivatives of Examples 4, 5, and 8, and Comparative Example 3 were compared.
(1) The differences from Example 20 were: First, since the glutathione derivatives of Examples and Comparative Examples used dimethyl sulfoxide (DMSO) as the solvent because of the solubility of the compounds, the system contained 0.1-0.3 (v/v)% DMSO instead of ethanol. […] This caused slight differences in the sensitivity in the test results of the glutathione derivative of Example 4. Furthermore, in Example 21, the differentiation induction on HL-60 cells into granulocytic cells in the coexistence of 9-cis-RA was only evaluated.

[3] = Pharmacokinetics after intravenous administration to rabbits, 2-compartment model (Example 25); type: in vivo, rabbit; details: iv auricular vein 2 ml/kg, fat emulsion (Comparative Ex. 1: HPCD/glucose solution)
Text: For the glutathione derivative of the present invention having a long-chain ester having 12 carbons or more and the glutathione derivatives of the conventional technology of Comparative Examples 1 and 2, kinetics in the blood were compared in rabbits that are a species having allow esterase activity in the blood.
(1) Male Japanese white rabbits, 12-week old or older, were purchased from Ichikawaya, and those rabbits that became 15-week old or older and whose body weight reached about 3 kg were used for the experiment. During the period up to the experiment, the animals were allowed free access to the animal feed and drinking water and were kept at a temperature of 24±2° C. and a humidity of 55±5%.
(2) The glutathione derivative having a long-chain ester of 12 carbons or more and the glutathione derivative of Comparative Example 2 were prepared at 20-200 mg/ml in a mixture of ethanol or ethanol:benzyl alcohol, which was mixed with the fat emulsion just prior to use, and was filtered with a 1.2 μm filter to obtain a liquid for intravenous administration. On the other hand, the glutathione derivative of Comparative Example 1 was dissolved in an aqueous solution of 6%-hydroxypropyl-β-cyclodextrin/5%-glucose at 15 mg/ml to obtain an administration liquid.
(3) The administration liquid of the glutathione derivative obtained in (2) at a dose of 2 ml/kg was rapidly infused into the left auricular vein of the rabbits under no anesthesia and under restraint at a rate of 1 ml/min. Each glutathione derivative was given to three or more rabbits. At 5, 10, 15, 30, 60, 120, and 240 minutes after the completion of the administration, 1 ml of the blood was drawn from the right auricular vein in the presence of heparin, which was immediately cooled on ice. Plasma was obtained by centrifuging the blood, 1-2 volume parts of acetonitrile was added to deproteinize the supernatant, which was filtered by a 0.5 μm filter. The supernatant of the filtrate was quantitated by HPLC.

[4] = compound 3 × 10^−6 M in DMSO, Solvent control (EtOH - 0.1%)
[5] = compound 3 × 10^−6 M in DMSO, with 9-cis-RA (5 × 10^−9 M)
[6] = compound 3 × 10^−7 M in DMSO, Solvent control (EtOH - 0.1%)
[7] = compound 3 × 10^−7 M in DMSO, with 9-cis-RA (5 × 10^−9 M)
[8] = compound 3 × 10^−8 M in DMSO, Solvent control (EtOH - 0.1%)
[9] = compound 3 × 10^−8 M in DMSO, with 9-cis-RA (5 × 10^−9 M)
[10] = compound 10^−6 M in DMSO, Solvent control (EtOH - 0.1%)
[11] = compound 10^−6 M in DMSO, with 9-cis-RA (5 × 10^−9 M)
[12] = compound 10^−7 M in DMSO, Solvent control (EtOH - 0.1%)
[13] = compound 10^−7 M in DMSO, with 9-cis-RA (5 × 10^−9 M)
[14] = compound 10^−8 M in DMSO, Solvent control (EtOH - 0.1%)
[15] = compound 10^−8 M in DMSO, with 9-cis-RA (5 × 10^−9 M)

SMILES | Decomposition rate constant by rabbit liver esterase (rabbit liver esterase) | Ratio of NBT reduction activity-positive cells (HL-60 cells; [4]) [%] | Ratio of NBT reduction activity-positive cells (HL-60 cells; [5]) [%] | Ratio of NBT reduction activity-positive cells (HL-60 cells; [6]) [%] | Ratio of NBT reduction activity-positive cells (HL-60 cells; [7]) [%] | Ratio of NBT reduction activity-positive cells (HL-60 cells; [8]) [%] | Ratio of NBT reduction activity-positive cells (HL-60 cells; [9]) [%] | Ratio of NBT reduction activity-positive cells (HL-60 cells; [10]) [%] | Ratio of NBT reduction activity-positive cells (HL-60 cells; [11]) [%] | Ratio of NBT reduction activity-positive cells (HL-60 cells; [12]) [%] | Ratio of NBT reduction activity-positive cells (HL-60 cells; [13]) [%] | Ratio of NBT reduction activity-positive cells (HL-60 cells; [14]) [%] | Ratio of NBT reduction activity-positive cells (HL-60 cells; [15]) [%] | also measured
CCCCCCCCCCOC(=O)[C@H](NC(=O)[C@H](CSCc1ccccc1)NC(=O)CC[C@H](N)C(=O)OCC)c1ccccc1.Cl [Comparative Example 4, Glu(Cys(Bzl)-D-Phg-O(Decyl))-OEt Hydrochloride, reference compound] | 54.2 10^−4/unit/min | – | – | – | – | – | – | – | – | – | – | – | – | Half life in rabbit plasma [1]: 3.02 h; Decomposition rate constant by swine liver esterase (swine liver esterase): 88.5 10^−4/unit/min
CCCCCCCCCCCCCCCCOC(=O)[C@H](NC(=O)[C@H](CSCc1ccccc1)NC(=O)CC[C@H](N)C(=O)O)c1ccccc1.Cl [Example 11, Glu(Cys(Bzl)-D-Phg-O(Hexadecyl))Hydrochloride] | – | – | – | – | – | – | – | – | – | – | – | – | – | Ratio of NBT reduction activity-positive cells ([2]; compound 10^−5 M, Solvent control (EtOH), no differentiation induction substance): 0.8%; Ratio of NBT reduction activity-positive cells ([2]; compound 10^−5 M, with 1α,25(OH)2D3 (2 × 10^−9 M)): 13.8%; Ratio of NBT reduction activity-positive cells ([2]; compound 10^−5 M, with 9-cis-RA (5 × 10^−9 M)): 19.8%; Ratio of NBT reduction activity-positive cells ([2]; compound 10^−6 M, Solvent control (EtOH), no differentiation induction substance): 0.2%; Ratio of NBT reduction activity-positive cells ([2]; compound 10^−6 M, with 1α,25(OH)2D3 (2 × 10^−9 M)): 4.8%; Ratio of NBT reduction activity-positive cells ([2]; compound 10^−6 M, with 9-cis-RA (5 × 10^−9 M)): 11.2%; Ratio of NBT reduction activity-positive cells ([2]; compound 10^−7 M, Solvent control (EtOH), no differentiation induction substance): 0.6%; Ratio of NBT reduction activity-positive cells ([2]; compound 10^−7 M, with 1α,25(OH)2D3 (2 × 10^−9 M)): 5.1%; Ratio of NBT reduction activity-positive cells ([2]; compound 10^−7 M, with 9-cis-RA (5 × 10^−9 M)): 8.8%
N[C@@H](CCC(=O)N[C@@H](CSCc1ccccc1)C(=O)N[C@@H](C(=O)O)c1ccccc1)C(=O)O [Comparative Example 3, Glu(Cys(Bzl)-D-Phg-OH)-OH Hydrochloride, reference compound] (γGlu-Cys(Bn)-[dPhg]-OH) | – | 0.6 | 17.1 | 0.6 | 3.8 | 0.5 | 2.8 | 0.3 | 6.1 | 0.3 | 3.5 | 0.7 | 3.1 | –
CCCCCCCCCCCCCCCCCCCCCCOC(=O)[C@@H](N)CCC(=O)N[C@@H](CSCc1ccccc1)C(=O)N[C@@H](C(=O)OCC)c1ccccc1.Cl [Example 2, Glu(Cys(Bzl)-D-Phg-OEt)-O(Docosyl)hydrochloride] | 0.523 10^−4/unit/min | – | – | – | – | – | – | – | – | – | – | – | – | Clearance per body weight [3]: 0.83 mL/min/kg; Distribution volume per body weight of the central compartment [3]: 0.07 L/kg
CCCCCCCCCCCCCCCCOC(=O)[C@H](NC(=O)[C@H](CSCc1ccccc1)NC(=O)CC[C@H](N)C(=O)OCC)c1ccccc1.Cl [Example 8, Glu(Cys(Bzl)-D-Phg-O(Hexadecyl))-OEt Hydrochloride] | – | 0.7 | 16.9 | 0.9 | 4.7 | 0.4 | 3.2 | 0.8 | 8.8 | 0.8 | 4.2 | 0.5 | 2.9 | –
CCCCCCCCCCCCCCCCOC(=O)[C@H](CCC(=O)N[C@@H](CSCc1ccccc1)C(=O)N[C@@H](C(=O)OCC)c1ccccc1)NC(C)=O [Example 5, Ac-Glu(Cys(Bzl)-D-Phg-OEt)-O(Hexadecyl)] | – | 0.2 | 11.2 | 0.7 | 4.3 | 0.7 | 2.1 | 0.3 | 6.5 | 0.9 | 3.2 | 0.3 | 2.5 | –
